Experimental data as given in patent US12338244B2, “Temozolomide compounds, polymers prepared therefrom, and method of treating a disease” (University of Massachusetts, priority 2016, dated 2025).

How the values were obtained:
U87MG cells = experiment: CellTiter-Glo luminescent cell viability assay, cytotoxic effects on glioblastoma cell line; type: cell-based; conditions: Homo sapiens, U-87 MG, 168 h; U87MG (TMZ sensitive) cells, Day 7, doses 0-10000 μM
Procedure: Testing of the cytotoxic effects of polyMPC-TMZ on glioblastoma (GBM) cell lines utilized U87MG (TMZ sensitive cell line) and T98G (TMZ-resistant cell line). […] U87MG cells were plated on 96 well plates and cultured overnight in DMEM media containing 10% FBS at 37° C. in a CO2 incubator. The cells were treated with different doses of TMZ (0-10000 μM), polyMPC-TMZ-17% (random copolymer with 17 mole percent TMZ monomer) (0-10000 μM), polyMPC-TMZ-26% (random copolymer with 26% TMZ monomer) (0-10000 μM), polyMPC-TMZ-33% (random copolymer with 33% TMZ monomer) (0-10000 μM) or polyMPC-TMZ-50% random copolymer with 50 mole percent TMZ monomer) (0-10000 μM) and cell viability was tested on Day 7 using the CellTiter-Glo luminescent cell viability assay purchased from Promega, Inc. PolyMPC itself was used as a control polymer. […] All of the polyMPC-TMZ conjugates were efficacious, with a modified toxicity response as is typical of polymer prodrugs which mask the toxicity of the drug prior to making them available to the tumor. […] The higher IC50 values of polyMPC-TMZ will allow for introduction of larger drug doses in in vivo experiments.

[1] = Stability of TMZ in organic solvents by UV-Vis spectroscopy; type: physicochemical; conditions: 0.01 mg/ml in 1:1 MeOH:DMSO
Procedure: This observation prompted investigation of the stability of TMZ in organic solvents, a property not previously reported to our knowledge. Solutions of TMZ (0.01 milligram per milliliter concentration) in 1:1 MeOH:DMSO, DMSO, ACN, and 2,2,2-trifluoroethanol (TFE) were incubated at room temperature, as well as elevated temperatures (e.g., 50° C. and 70° C.). […] The marked difference in stability of TMZ observed between MeOH and TFE was attributed to the poor nucleophilicity of the latter, which precludes rapid imidazotetrazine solvolysis.

- degradation in MeOH:DMSO mixture, heated ([1]; 50° C. or 70° C., after 1 hour): fully degraded
- degradation in MeOH:DMSO mixture, room temperature ([1]; room temperature): significant degradation
Compound: Cn1nnc2c(C(N)=O)ncn2c1=O [TMZ, Temozolomide]
- IC50 (U87MG cells): ~192 µM
